Results as given in patent US12171729B2, “Formulations of terameprocol and temozolomide and their use in stimulation of humoral immunity in tumors” (The Johns Hopkins University, priority 2019, dated 2024).

Key:
[1] = tested on: LN229 tumor xenograft mice; assay: Cytokine profiles in serum of treated LN229 xenograft nude mice; format: in vivo, mouse; details: sera from LN229 tumor xenograft mice
LN229 tumors [2] = assay: Metabolite analysis (Metabolon) of LN229 tumor samples; format: in vivo, mouse; details: EM+M4N+TMZ1/2 versus EM+TMZ1/2 schedule
Kras G12D mice = details: mouse, in vivo, po
From the text: FIG. 13 depicts MRI of lung tumors in mice. The axial images were taken by 9.4 T MRI; RARE T2-weighted; slice thickness=1 mm; total slice number=24. The scan started from neck to bottom of ribs. The tumor size ≥1 mm is detectable by this scan. H, heart; S, spine; Arrow: lung tumor;
In the present Kras-driven lung cancer model, since mice carry homozygous mutant Kras are embryonic lethal, all Kras mice bred are heterozygous Kras^+/G12D that one genetic engineering allele can synthesize the Kras G12D protein by “hit-and-run” recombination and cause cancers spontaneously (FIG. 11A). According to previous reports and experience, lung lesions could be found in mice as young as one-week old. In this group of mice, 100% of the mice will develop lung cancer between 15 to 40 weeks of age (FIG. 11B), and about 30% may also develop thymic lymphoma and papilloma (Nature; 410:6832; 1111-6, 2001). […]
In this study, 10-week old, female, Kras G12D mice were chosen; which lung cancer had not been well developed in at this age. […] After consecutive treatments for 120 days, treatment for mice that reached 28 weeks old was stopped in both groups and the mice were monitored and weighed continuously. […]

LN229 tumors [3] = assay: Immune cells infiltration in LN229 tumors from xenograft mice; format: in vivo, mouse
[4] = daily (1 mg/day) IV injection, nude mice carrying human tumor xenografts; cited from earlier work
[5] = oral administration, short-term and long-term feeding; cited from earlier work
malignant gliomas = details: cited from earlier work

Question: Which results are given for `COc1ccc(C[C@@H](C)[C@@H](C)Cc2ccc(OC)c(OC)c2)cc1OC` [M4N, Tetra-O-methyl nordihydroguaiaretic acid]?
Answer: level of IL-21 in sera (in words) [1]: significantly increased; effect on metabolic pathways of the tumor (LN229 tumors [2]): suppressed most of the metabolic pathways; weight loss during treatment (Kras G12D mice): no significant weight loss; tumor infiltrating immune cells in the tumor microenvironment (LN229 tumors [3]): Tumor infiltrating macrophages and B cells; M4N levels accumulated in blood and tumors [4]: above 1 mM; M4N concentration in mouse organs [5]: ≤ 906 μg/g of tissue

Question: Which “survival rate at 2 years” value (malignant gliomas; radiotherapy and chemotherapy, radiotherapy alone 10.4%) does the source give for `Cn1nnc2c(C(N)=O)ncn2c1=O` [TMZ, 3,4-dihydro-3-methyl-4-oxoimidazo[5,1-d]-1,2,3,5-tetrazine-8-carboxamide] here?
Answer: 26.5%

Question: And the dose-limiting toxicity (malignant gliomas; systemic exposure, specifically thrombocytopenia and neutropenia)?
Answer: hematological toxicity
